Read-outs that look alike come from different tables or passages of the source.
System: NL-RLuc virus
Experiment: Inhibition of HIV replication (NL-RLuc virus in MT-2 cells, luciferase readout)
Assay type: cell-based
Details: Human immunodeficiency virus 1, MT2, 120 h
Text: Inhibition of HIV replication: A recombinant NL-RLuc proviral clone was constructed in which a section of the nef gene from NL4-3 was replaced with the Renilla Luciferase gene. This virus is fully infectious and can undergo multiple cycles of replication in cell culture. In addition, the luciferous reporter provides a simple and easy method for quantitating the extent of virus growth and consequently, the antiviral activity of test compounds. The plasmid pNLRLuc contains the proviral NL-Rluc DNA cloned into pUC18 at the Pvull site. The NL-RLuc virus was prepared by transfection of 293T cells with the plasmid pNLRLuc. Transfections were performed using the LipofectAMINE PLUS kit from Invitrogen (Carlsbad, Calif.) according to the manufacturer and the virus generated was titered in MT-2 cells. For susceptibility analyses, the titrated virus was used to infect MT-2 cells in the presence of compound, and after 5 days of incubation, cells were processed and quantitated for virus growth by the amount of expressed luciferase. Assay media was RPMI 1640 supplemented with 10% heat inactivated fetal bovine serum (FBS), 100 units/ml penicillin G/100 units/ml streptomycin, 10 mM HEPES buffer pH 7.55 and 2 mM L-glutamine. The results from at least 2 experiments were used to calculate the EC50 values. Luciferase was quantitated using the Dual Luciferase kit from Promega (Madison, Wis.). Susceptibility of viruses to compounds was determined by incubation in the presence of serial dilutions of the compound. The 50% effective concentration (EC50) was calculated by using the exponential form of the median effect equation where (Fa)=1/[1+(ED50/drug conc.)^m] (Johnson V A, Byington R T. Infectivity Assay. In Techniques in HIV Research. ed. Aldovini A, Walker BD. 71-76. New York: Stockton Press.1990). Activity equal to A refers to a compound having an EC50<100 nM, while B and C denote compounds having an EC50 between 100 nM and 1 uM (B) or >1 uM (C).

| SMILES | EC50 (read-out: Activity) [µM] | EC50 (read-out: EC50 μM) [µM] |
| --- | --- | --- |
| Cc1nc(C)c([C@H](OC(C)(C)C)C(=O)O)c(N2CCC(C)(C)CC2)c1/C=C/c1ccc(C(F)(F)F)cc1 [Example 7, (S,E)-2-(tert-Butoxy)-2-(4-(4,4-dimethylpiperidin-1-yl)-2,6-dimethyl-5-(4-(trifluoromethyl)styryl)pyridin-3-yl)acetic acid] | < 0.1 |  |
| Cc1nc(C)c([C@H](OC(C)(C)C)C(=O)O)c(N2CCC(C)(C)CC2)c1C1=CC(CCOc2ccc(F)cc2)C1 (stereo partly drawn) [Example 25, (2S)-2-(tert-Butoxy)-2-(4-(4,4-dimethylpiperidin-1-yl)-5-(3-(2-(4-fluorophenoxy)ethyl)cyclobut-1-en-1-yl)-2,6-dimethylpyridin-3-yl)acetic acid] | < 0.1 |  |
| Cc1nc(C)c([C@H](OC(C)(C)C)C(=O)O)c(N2CCC(C)(C)CC2)c1C#CCOCc1ccccc1 [Example 1, (S)-2-(5-(3-(Benzyloxy)prop-1-yn-1-yl)-4-(4,4-dimethylpiperidin-1-yl)-2,6-dimethylpyridin-3-yl)-2-(tert-butoxy)acetic acid] | 0.1 to 1 | 0.282 |
| Cc1nc(C)c([C@H](OC(C)(C)C)C(=O)O)c(N2CCC(C)(C)CC2)c1/C=C/CNC(=O)OCc1ccccc1 [Example 17, (S,E)-2-(5-(3-(((Benzyloxy)carbonyl)amino)prop-1-en-1-yl)-4-(4,4-dimethylpiperidin-1-yl)-2,6-dimethylpyridin-3-yl)-2-(tert-butoxy)acetic acid] | < 0.1 |  |
| Cc1cc(N2CCC(C)(C)CC2)c([C@H](OC(C)(C)C)C(=O)O)c(C)n1 [Example 27, (S)-2-(tert-Butoxy)-2-(4-(4,4-dimethylpiperidin-1-yl)-2,6-dimethylpyridin-3-yl)acetic acid] | > 1 |  |
| Cc1nc(C)c([C@H](OC(C)(C)C)C(=O)O)c(N2CCC(C)(C)CC2)c1C1=CCCCC1 [Example 14, (S)-2-(tert-Butoxy)-2-(5-(cyclohex-1-en-1-yl)-4-(4,4-dimethylpiperidin-1-yl)-2,6-dimethylpyridin-3-yl)acetic acid] | 0.1 to 1 | 0.136 |
| Cc1nc(C)c([C@H](OC(C)(C)C)C(=O)O)c(N2CCC(C)(C)CC2)c1Br [Example 13, (S)-2-(5-Bromo-4-(4,4-dimethylpiperidin-1-yl)-2,6-dimethylpyridin-3-yl)-2-(tert-butoxy)acetic acid] | 0.1 to 1 |  |
| Cc1nc(C)c([C@H](OC(C)(C)C)C(=O)O)c(N2CCC(C)(C)CC2)c1CCc1ccc(-c2ccccc2)cc1 [Example 6, (S)-2-(5-(2-([1,1′-Biphenyl]-4-yl)ethyl)-4-(4,4-dimethylpiperidin-1-yl)-2,6-dimethylpyridin-3-yl)-2-(tert-butoxy)acetic acid] | < 0.1 |  |
| Cc1nc(C)c([C@H](OC(C)(C)C)C(=O)O)c(N2CCC(C)(C)CC2)c1C1=CCN(C(=O)OC(C)(C)C)CC1 [Example 16, (S)-2-(tert-Butoxy)-2-(1′-(tert-butoxycarbonyl)-4-(4,4-dimethylpiperidin-1-yl)-2,6-dimethyl-1′,2′,3′,6′-tetrahydro-[3,4′-bipyridin]-5-yl)acetic acid] | < 0.1 |  |
| CCc1c(C)nc(C)c([C@H](OC(C)(C)C)C(=O)O)c1N1CCC(C)(C)CC1 [Example 29, (S)-2-(tert-Butoxy)-2-(4-(4,4-dimethylpiperidin-1-yl)-5-ethyl-2,6-dimethylpyridin-3-yl)acetic acid] | < 0.1 | 0.068 |
| Cc1nc(C)c([C@H](OC(C)(C)C)C(=O)O)c(N2CCC(C)(C)CC2)c1CCc1ccc(F)cc1 [Example 4, (S)-2-(tert-Butoxy)-2-(4-(4,4-dimethylpiperidin-1-yl)-5-(4-fluorophenethyl)-2,6-dimethylpyridin-3-yl)acetic acid] | < 0.1 |  |
| Cc1nc(C)c([C@H](OC(C)(C)C)C(=O)O)c(N2CCC(C)(C)CC2)c1C#CC1(O)CCN(Cc2ccccc2)CC1 [Example 2, (S)-2-(5-((1-Benzyl-4-hydroxypiperidin-4-yl)ethynyl)-4-(4,4-dimethylpiperidin-1-yl)-2,6-dimethylpyridin-3-yl)-2-(tert-butoxy)acetic acid] | < 0.1 | 0.064 |
| Cc1nc(C)c([C@H](OC(C)(C)C)C(=O)O)c(N2CCC(C)(C)CC2)c1C1=CCN(C(=O)OCc2ccccc2)CC1 [Example 19, (S)-2-(1′-((Benzyloxy)carbonyl)-4-(4,4-dimethylpiperidin-1-yl)-2,6-dimethyl-1′,2′,3′,6′-tetrahydro-[3,4′-bipyridin]-5-yl)-2-(tert-butoxy)acetic acid] | < 0.1 |  |
| Cc1nc(C)c([C@H](OC(C)(C)C)C(=O)O)c(N2CCC(C)(C)CC2)c1CCc1ccc(C(F)(F)F)cc1 [Example 8, (S)-2-(tert-Butoxy)-2-(4-(4,4-dimethylpiperidin-1-yl)-2,6-dimethyl-5-(4-(trifluoromethyl)phenethyl)pyridin-3-yl)acetic acid] | 0.1 to 1 |  |
| C=Cc1c(C)nc(C)c([C@H](OC(C)(C)C)C(=O)O)c1N1CCC(C)(C)CC1 [Example 28, (S)-2-(tert-Butoxy)-2-(4-(4,4-dimethylpiperidin-1-yl)-2,6-dimethyl-5-vinylpyridin-3-yl)acetic acid] | 0.1 to 1 |  |
| Cc1nc(C)c([C@H](OC(C)(C)C)C(=O)O)c(N2CCC(C)(C)CC2)c1C#N [Example 24, (S)-2-(tert-Butoxy)-2-(5-cyano-4-(4,4-dimethylpiperidin-1-yl)-2,6-dimethylpyridin-3-yl)acetic acid] | 0.1 to 1 |  |
| Cc1nc(C)c([C@H](OC(C)(C)C)C(=O)O)c(N2CCC(C)(C)CC2)c1C1=CCNCC1 [Example 21, (S)-2-(tert-Butoxy)-2-(4-(4,4-dimethylpiperidin-1-yl)-2,6-dimethyl-1′,2′,3′,6′-tetrahydro-[3,4′-bipyridin]-5-yl)acetic acid] | > 1 | 2.21 |
| Cc1nc(C)c([C@H](OC(C)(C)C)C(=O)O)c(N2CCC(C)(C)CC2)c1/C=C/Cc1ccccc1 [Example 9, (S,E)-2-(tert-Butoxy)-2-(4-(4,4-dimethylpiperidin-1-yl)-2,6-dimethyl-5-(3-phenylprop-1-en-1-yl)pyridin-3-yl)acetic acid] | 0.1 to 1 | 0.281 |
| Cc1nc(C)c([C@H](OC(C)(C)C)C(=O)O)c(N2CCC(C)(C)CC2)c1C [Example 26, (S)-2-(tert-Butoxy)-2-(4-(4,4-dimethylpiperidin-1-yl)-2,5,6-trimethylpyridin-3-yl)acetic acid] | < 0.1 | 0.097 |
| Cc1nc(C)c([C@H](OC(C)(C)C)C(=O)O)c(N2CCC(C)(C)CC2)c1C1=CCN(CCCc2ccc(F)cc2)CC1 [Example 23, (S)-2-(tert-Butoxy)-2-(4-(4,4-dimethylpiperidin-1-yl)-1′-(3-(4-fluorophenyl)propyl)-2,6-dimethyl-1′,2′,3′,6′-tetrahydro-[3,4′-bipyridin]-5-yl)acetic acid] | < 0.1 |  |
| Cc1nc(C)c([C@H](OC(C)(C)C)C(=O)O)c(N2CCC(C)(C)CC2)c1/C=C/c1ccc(F)cc1 [Example 3, (S,E)-2-(tert-Butoxy)-2-(4-(4,4-dimethylpiperidin-1-yl)-5-(4-fluorostyryl)-2,6-dimethylpyridin-3-yl)acetic acid] | < 0.1 |  |
| COC(=O)NC/C=C/c1c(C)nc(C)c([C@H](OC(C)(C)C)C(=O)O)c1N1CCC(C)(C)CC1 [Example 18, (S,E)-2-(tert-Butoxy)-2-(4-(4,4-dimethylpiperidin-1-yl)-5-(3-((methoxycarbonyl)amino)prop-1-en-1-yl)-2,6-dimethylpyridin-3-yl)acetic acid] | 0.1 to 1 |  |
| Cc1nc(C)c([C@H](OC(C)(C)C)C(=O)O)c(N2CCC(C)(C)CC2)c1CCc1ccccc1 [Example 12, (S)-2-(tert-Butoxy)-2-(4-(4,4-dimethylpiperidin-1-yl)-2,6-dimethyl-5-phenethylpyridin-3-yl)acetic acid] | 0.1 to 1 |  |
| Cc1nc(C)c([C@H](OC(C)(C)C)C(=O)O)c(N2CCC(C)(C)CC2)c1/C=C/c1ccccc1 [Example 11, (S,E)-2-(tert-Butoxy)-2-(4-(4,4-dimethylpiperidin-1-yl)-2,6-dimethyl-5-styrylpyridin-3-yl)acetic acid] | < 0.1 | 0.027 |
| Cc1nc(C)c([C@H](OC(C)(C)C)C(=O)O)c(N2CCC(C)(C)CC2)c1CCCc1ccccc1 [Example 10, (S)-2-(tert-Butoxy)-2-(4-(4,4-dimethylpiperidin-1-yl)-2,6-dimethyl-5-(3-phenylpropyl)pyridin-3-yl)acetic acid] | 0.1 to 1 |  |
| Cc1nc(C)c([C@H](OC(C)(C)C)C(=O)O)c(N2CCC(C)(C)CC2)c1C1=CCC(C(C)(C)C)CC1 (stereo partly drawn) [Example 15, (2S)-2-(tert-Butoxy)-2-(5-(4-(tert-butyl)cyclohex-1-en-1-yl)-4-(4,4-dimethylpiperidin-1-yl)-2,6-dimethylpyridin-3-yl)acetic acid] | 0.1 to 1 |  |

From patent US20180147196A1, “PYRIDIN-3-YL ACETIC ACID DERIVATIVES AS INHIBITORS OF HUMAN IMMUNODEFICIENCY VIRUS REPLICATION” (priority 2015, published 2018)
